Data as given in the NIST ThermoML archive (doi:10.1021/je050170x).
± gives the expanded uncertainty stated by the source.

What was measured:
[1] = for surface tension liquid-gas: Wilhelmy-plate method; for mass density / viscosity: 101.33 kPa, Liquid; for viscosity: Capillary tube (Ostwald / Ubbelohde) method
[2] = refractive index (Na D-line) (dimensionless); details: 101.33 kPa, Liquid, Standard Abbe refractometry

CCCC(=O)OCCC(C)C [3-methylbutyl butanoate]
Details | mass density, [1] [kg/m3] | refractive index, [2] | surface tension liquid-gas, [1] [mN/m] | viscosity, [1] [mPa·s]
288.15 K | 867.72 ± 0.51 | 1.41259 ± 0.00034 | 25.7 ± 0.4 | 1.317 ± 0.018
298.15 K | 858.69 ± 0.52 | 1.40815 ± 0.00034 | 24.7 ± 0.4 | 1.111 ± 0.015
308.15 K | 849.62 ± 0.54 | 1.40374 ± 0.00034 | 24 ± 0.4 | 0.952 ± 0.013
318.15 K | 840.55 ± 0.55 | 1.39927 ± 0.00034 | 23.1 ± 0.4 | 0.827 ± 0.011
328.15 K | 831.47 ± 0.57 | 1.39506 ± 0.00034 | 22.4 ± 0.4 | 0.724 ± 0.01
338.15 K | 822.35 ± 0.58 | 1.39055 ± 0.00034 | 21.6 ± 0.4 | 0.641 ± 0.009
348.15 K | 813.19 ± 0.6 | 1.386 ± 0.00034 | 20.5 ± 0.4 | 0.573 ± 0.008
358.15 K | 803.96 ± 0.62 | 1.38139 ± 0.00034 | 19.7 ± 0.4 | 0.511 ± 0.007

CC(=O)OCCC(C)C [3-methylbutyl ethanoate]
Details | mass density, [1] [kg/m3] | refractive index, [2] | surface tension liquid-gas, [1] [mN/m] | viscosity, [1] [mPa·s]
288.15 K | 877.72 ± 0.52 | 1.40288 ± 0.00034 | 25.4 ± 0.4 | 0.94 ± 0.013
298.15 K | 867.91 ± 0.53 | 1.39836 ± 0.00034 | 24.3 ± 0.4 | 0.804 ± 0.011
308.15 K | 858.07 ± 0.55 | 1.39365 ± 0.00034 | 23.4 ± 0.4 | 0.704 ± 0.01
318.15 K | 848.17 ± 0.56 | 1.38895 ± 0.00034 | 22.4 ± 0.4 | 0.627 ± 0.009
328.15 K | 838.22 ± 0.58 | 1.38447 ± 0.00034 | 21.6 ± 0.4 | 0.559 ± 0.008
338.15 K | 828.19 ± 0.59 | 1.37971 ± 0.00034 | 20.6 ± 0.4 | 0.484 ± 0.007
348.15 K | 818.07 ± 0.61 | 1.37487 ± 0.00034 | 19.6 ± 0.4 | 0.434 ± 0.006
358.15 K | 807.85 ± 0.63 | 1.36995 ± 0.00034 | 18.7 ± 0.4 | 0.39 ± 0.006

CC(=O)OCc1ccccc1 [benzyl ethanoate]
Details | mass density, [1] [kg/m3] | refractive index, [2] | surface tension liquid-gas, [1] [mN/m] | viscosity, [1] [mPa·s]
288.15 K | 1060.11 ± 0.36 | 1.50439 ± 0.00032 | 37.7 ± 0.4 | 2.53 ± 0.033
298.15 K | 1050.75 ± 0.34 | 1.49982 ± 0.00032 | 36.4 ± 0.4 | 2.056 ± 0.027
308.15 K | 1041.39 ± 0.33 | 1.49539 ± 0.00032 | 35.3 ± 0.4 | 1.703 ± 0.023
318.15 K | 1032.03 ± 0.31 | 1.49064 ± 0.00032 | 34.1 ± 0.4 | 1.432 ± 0.019
328.15 K | 1022.67 ± 0.3 | 1.48623 ± 0.00032 | 33.2 ± 0.4 | 1.229 ± 0.016
338.15 K | 1013.29 ± 0.28 | 1.48157 ± 0.00032 | 32.2 ± 0.4 | 1.059 ± 0.014
348.15 K | 1003.89 ± 0.27 | 1.47701 ± 0.00032 | 31.1 ± 0.4 | 0.941 ± 0.013
358.15 K | 994.45 ± 0.27 | 1.47233 ± 0.00032 | 30.1 ± 0.4 | 0.826 ± 0.011

CCC(=O)OCc1ccccc1 [benzyl propanoate]
Details | mass density, [1] [kg/m3] | refractive index, [2] | surface tension liquid-gas, [1] [mN/m] | viscosity, [1] [mPa·s]
288.15 K | 1036.86 ± 0.39 | 1.4995 ± 0.00034 | 36 ± 0.4 | 2.55 ± 0.034
298.15 K | 1027.6 ± 0.38 | 1.49498 ± 0.00034 | 34.8 ± 0.4 | 2.123 ± 0.029
308.15 K | 1018.38 ± 0.37 | 1.49074 ± 0.00034 | 33.6 ± 0.4 | 1.787 ± 0.024
318.15 K | 1009.15 ± 0.36 | 1.48611 ± 0.00034 | 32.4 ± 0.4 | 1.515 ± 0.02
328.15 K | 999.93 ± 0.34 | 1.48171 ± 0.00034 | 31.6 ± 0.4 | 1.294 ± 0.018
338.15 K | 990.72 ± 0.35 | 1.47711 ± 0.00034 | 30.5 ± 0.4 | 1.114 ± 0.015
348.15 K | 981.49 ± 0.36 | 1.47252 ± 0.00034 | 29.5 ± 0.4 | 0.964 ± 0.013
358.15 K | 972.25 ± 0.37 | 1.46768 ± 0.00034 | 28.5 ± 0.4 | 0.84 ± 0.011

CCOC(=O)c1ccccc1O [ethyl 2-hydroxybenzoate]
Details | mass density, [1] [kg/m3] | refractive index, [2] | surface tension liquid-gas, [1] [mN/m] | viscosity, [1] [mPa·s]
288.15 K | 1134.72 ± 0.49 | 1.52481 ± 0.00032 | 37.5 ± 0.4 | 3.694 ± 0.049
298.15 K | 1125 ± 0.48 | 1.52022 ± 0.00032 | 36.3 ± 0.4 | 2.831 ± 0.037
308.15 K | 1115.29 ± 0.46 | 1.51573 ± 0.00032 | 35.2 ± 0.4 | 2.253 ± 0.03
318.15 K | 1105.6 ± 0.44 | 1.51116 ± 0.00032 | 34.4 ± 0.4 | 1.842 ± 0.024
328.15 K | 1095.94 ± 0.42 | 1.50646 ± 0.00032 | 33.4 ± 0.4 | 1.53 ± 0.02
338.15 K | 1086.24 ± 0.41 | 1.50191 ± 0.00032 | 32 ± 0.4 | 1.305 ± 0.017
348.15 K | 1076.6 ± 0.39 | 1.49744 ± 0.00032 | 31 ± 0.4 | 1.126 ± 0.015
358.15 K | 1066.83 ± 0.37 | 1.49296 ± 0.00032 | 30.2 ± 0.4 | 0.984 ± 0.013

CCOC(=O)CC(C)C [ethyl 3-methylbutanoate]
Details | mass density, [1] [kg/m3] | refractive index, [2] | surface tension liquid-gas, [1] [mN/m] | viscosity, [1] [mPa·s]
288.15 K | 869.66 ± 0.61 | 1.3988 ± 0.00037 | 24.4 ± 0.4 | 0.853 ± 0.012
298.15 K | 859.78 ± 0.63 | 1.39401 ± 0.00037 | 23.5 ± 0.4 | 0.739 ± 0.011
308.15 K | 849.83 ± 0.64 | 1.38931 ± 0.00037 | 22.5 ± 0.4 | 0.642 ± 0.009
318.15 K | 839.81 ± 0.65 | 1.38458 ± 0.00037 | 21.6 ± 0.4 | 0.566 ± 0.008
328.15 K | 829.71 ± 0.66 | 1.37978 ± 0.00037 | 20.7 ± 0.4 | 0.504 ± 0.007
338.15 K | 819.52 ± 0.68 | 1.37492 ± 0.00037 | 19.6 ± 0.4 | 0.452 ± 0.007
348.15 K | 809.2 ± 0.69 | 1.37002 ± 0.00037 | 18.7 ± 0.4 | 0.408 ± 0.006
358.15 K | 798.73 ± 0.71 | 1.36524 ± 0.00037 | 17.6 ± 0.4 | 0.367 ± 0.005
